Source: patent publication US20240336608A1, “IL4I1 INHIBITORS AND METHODS OF USE” (Merck Sharp & Dohme LLC, priority 2023, published 2024)

biological target: T1, recombinant IL4I1 (Homo sapiens, UniProt Q96RQ9); assay: IL4I1 Enzymatic Assay (Amplex Red/HRP coupled detection of H2O2, fluorescence); type: biochemical; conditions: 1 nM recombinant IL4I1; four-hour pre-incubation with compound; 1 mM each Phe, Tyr, Trp; ten-point titration
T1 construct: purchased R&D Systems 5684-AO-020
T1 sequence (Q96RQ9 22-567): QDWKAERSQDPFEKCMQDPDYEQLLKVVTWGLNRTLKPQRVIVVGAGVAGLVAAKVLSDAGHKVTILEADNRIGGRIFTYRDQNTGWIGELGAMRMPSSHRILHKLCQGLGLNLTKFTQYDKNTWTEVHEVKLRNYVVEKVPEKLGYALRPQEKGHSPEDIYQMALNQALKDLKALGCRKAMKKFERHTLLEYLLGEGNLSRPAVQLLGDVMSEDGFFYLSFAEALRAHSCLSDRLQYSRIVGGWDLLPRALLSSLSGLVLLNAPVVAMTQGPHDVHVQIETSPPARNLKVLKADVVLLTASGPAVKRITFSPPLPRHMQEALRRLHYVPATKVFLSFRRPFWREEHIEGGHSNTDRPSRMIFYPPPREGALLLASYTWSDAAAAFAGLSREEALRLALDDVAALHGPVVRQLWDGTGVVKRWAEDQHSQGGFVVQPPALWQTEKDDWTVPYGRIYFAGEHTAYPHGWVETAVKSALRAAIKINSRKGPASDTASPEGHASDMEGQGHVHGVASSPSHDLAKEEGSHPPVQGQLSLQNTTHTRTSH
Outline: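 Recombinant IL4I1 (1 nM final) pre-incubated 4 h at ambient temperature with compound (0.5% DMSO) in 50 mM Hepes pH 7.0, 0.005% Tween20; reaction started with 1 mM each Phe/Tyr/Trp plus excess Amplex Red/HRP, run 120 min. H2O2 read as resorufin fluorescence; EC50 from 10-point four-parameter fit.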

| Structure (SMILES) | EC50 [nM] |
| --- | --- |
| O=C(NCc1nnc(-c2ccccc2)s1)c1cn(Cc2ccncc2)nn1 [Example 99, N-((5-phenyl-1,3,4-thiadiazol-2-yl)methyl)-1-(pyridin-4-ylmethyl)-1H-1,2,3-triazole-4-carboxamide] | 21 |
| O=C(NCc1nnc(-c2ccccc2)s1)c1cn([C@@H]2CCC[C@H]2O)nn1 [Example 210, 1-((1R,2R)-2-hydroxycyclopentyl)-N-((5-phenyl-1,3,4-thiadiazol-2-yl)methyl)-1H-1,2,3-triazole-4-carboxamide] | 109 |
| CCC(CO)(CO)n1cc(C(=O)NCc2nnc(-c3ccccc3)s2)nn1 [Example 195, 1-(1-hydroxy-2-(hydroxymethyl)butan-2-yl)-N-((5-phenyl-1,3,4-thiadiazol-2-yl)methyl)-1H-1,2,3-triazole-4-carboxamide] | 532 |
| Cc1ccc(-n2cc(C(=O)NCc3nnc(-c4ccccc4F)s3)nn2)c(C)n1 [Example 114, 1-(2,6-dimethylpyridin-3-yl)-N-((5-(2-fluorophenyl)-1,3,4-thiadiazol-2-yl)methyl)-1H-1,2,3-triazole-4-carboxamide] | 37 |
| CCOc1ccsc1C(=O)NCc1nnc(-c2ccccc2)s1 [Example 8, 3-ethoxy-N-[(5-phenyl-1,3,4-thiadiazol-2-yl)methyl]thiophene-2-carboxamide] | 3 |
| O=C(NCc1nnc(-c2ccccc2)s1)c1n[nH]c(C2CC2)c1F [Example 31, 5-cyclopropyl-4-fluoro-N-[(5-phenyl-1,3,4-thiadiazol-2-yl)methyl]-1H-pyrazole-3-carboxamide] | 42 |
| Cc1ccc(-n2cc(C(=O)NCc3nnc(-c4cncs4)s3)nn2)c(C)n1 [Example 298, 1-(2,6-dimethylpyridin-3-yl)-N-((5-(thiazol-5-yl)-1,3,4-thiadiazol-2-yl)methyl)-1H-1,2,3-triazole-4-carboxamide] | 14 |
| Cc1ccc(-n2cc(C(=O)NCc3nnc(C4CCCC4)s3)nn2)c(C)n1 [Example 325, N-((5-cyclopentyl-1,3,4-thiadiazol-2-yl)methyl)-1-(2,6-dimethylpyridin-3-yl)-1H-1,2,3-triazole-4-carboxamide] | 274 |
| CC(C)(O)c1cc(C(=O)NCc2cc(-c3ccccc3)on2)on1 [Example 248, 3-(2-hydroxypropan-2-yl)-N-((5-phenylisoxazol-3-yl)methyl)isoxazole-5-carboxamide] | 303 |
| Cc1ccc(-n2cc(C(=O)NCc3cc(-c4ccccn4)on3)nn2)c(C)n1 [Example 238, 1-(2,6-dimethylpyridin-3-yl)-N-((5-(pyridin-2-yl)isoxazol-3-yl)methyl)-1H-1,2,3-triazole-4-carboxamide] | 76 |
| Cn1ccc(C(=O)NCc2nnc(-c3ccccc3)s2)n1 [Example 14, 1-methyl-N-[(5-phenyl-1,3,4-thiadiazol-2-yl)methyl]pyrazole-3-carboxamide] | 291 |
| Cc1ccc(-n2cc(C(=O)NCc3ccc(-c4cccc(F)c4F)nn3)nn2)c(C)n1 [Example 117, N-((6-(2,3-difluorophenyl)pyridazin-3-yl)methyl)-1-(2,6-dimethylpyridin-3-yl)-1H-1,2,3-triazole-4-carboxamide] | 692 |
| O=C(NCc1nnc(-c2ccccc2)s1)c1cn(-c2ccncn2)nn1 [Example 309, N-((5-phenyl-1,3,4-thiadiazol-2-yl)methyl)-1-(pyrimidin-4-yl)-1H-1,2,3-triazole-4-carboxamide] | 720 |
| C[C@H]1OCC[C@H]1Cn1cc(C(=O)NCc2nnc(-c3ccccc3)s2)nn1 [Example 205, 1-(((2R,3S)-2-methyltetrahydrofuran-3-yl)methyl)-N-((5-phenyl-1,3,4-thiadiazol-2-yl)methyl)-1H-1,2,3-triazole-4-carboxamide] | 33 |
| Cn1cnc(C(=O)NCc2nnc(-c3ccccc3)s2)c1 [Example 32, 1-methyl-N-((5-phenyl-1,3,4-thiadiazol-2-yl)methyl)-1H-imidazole-4-carboxamide] | 77 |
| O=C(NCc1nnc(-c2ccccc2)s1)c1cn(C2CS(=O)(=O)CC2O)nn1 (stereo not drawn) [Example 188, 1-(4-hydroxy-1,1-dioxidotetrahydrothiophen-3-yl)-N-((5-phenyl-1,3,4-thiadiazol-2-yl)methyl)-1H-1,2,3-triazole-4-carboxamide] | 155 |
| CC(C)(C#N)n1cc(C(=O)NCc2nnc(-c3ccccc3)s2)nn1 [Example 313, 1-(2-cyanopropan-2-yl)-N-((5-phenyl-1,3,4-thiadiazol-2-yl)methyl)-1H-1,2,3-triazole-4-carboxamide] | 26 |
| CNC(=O)C(C)(C)n1cc(C(=O)NCc2nnc(-c3ccncc3)s2)nn1 [Example 321, 1-(2-methyl-1-(methylamino)-1-oxopropan-2-yl)-N-((5-(pyridin-4-yl)-1,3,4-thiadiazol-2-yl)methyl)-1H-1,2,3-triazole-4-carboxamide] | 51 |
| O=C(NCc1nnc(-c2ccccc2)s1)c1cn(Cc2ccccn2)nn1 [Example 101, N-((5-phenyl-1,3,4-thiadiazol-2-yl)methyl)-1-(pyridin-2-ylmethyl)-1H-1,2,3-triazole-4-carboxamide] | 19 |
| CC(C)(O)c1cc(C(=O)NCc2nnc(-c3ccccc3)s2)on1 [Example 328, 3-(2-hydroxypropan-2-yl)-N-((5-phenyl-1,3,4-thiadiazol-2-yl)methyl)isoxazole-5-carboxamide] | 306 |
| Cc1ccc(-n2cc(C(=O)NCc3nnc(-c4ccc(Cl)cc4)s3)nn2)c(C)n1 [Example 113, N-((5-(4-chlorophenyl)-1,3,4-thiadiazol-2-yl)methyl)-1-(2,6-dimethylpyridin-3-yl)-1H-1,2,3-triazole-4-carboxamide] | 838 |
| Cc1c(C(=O)NCc2nnc(-c3ccccc3)s2)oc2ccccc12 [Example 53, 3-methyl-N-[(5-phenyl-1,3,4-thiadiazol-2-yl)methyl]benzofuran-2-carboxamide] | 357 |
| O=C(NCc1nnc(-c2ccccc2)s1)c1cc(CO)n[nH]1 [Example 4, 3-(hydroxymethyl)-N-((5-phenyl-1,3,4-thiadiazol-2-yl)methyl)-1H-pyrazole-5-carboxamide] | 69 |
| O=C(NCc1nnc(-c2ccccc2)s1)c1cn(C2CC(F)(F)C2)nn1 [Example 61, 1-(3,3-difluorocyclobutyl)-N-((5-phenyl-1,3,4-thiadiazol-2-yl)methyl)-1H-1,2,3-triazole-4-carboxamide] | 68 |
| Cc1ccc(-c2cc(C(=O)NCc3nnc(-c4ccccc4)s3)no2)c(C)n1 [Example 228, 5-(2,6-dimethylpyridin-3-yl)-N-[(5-phenyl-1,3,4-thiadiazol-2-yl)methyl]-1,2-oxazole-3-carboxamide] | 51 |
| CC(C)(C(N)=O)n1cc(C(=O)NCc2nnc(-c3ccncc3)s2)nn1 [Example 320, 1-(1-amino-2-methyl-1-oxopropan-2-yl)-N-((5-(pyridin-4-yl)-1,3,4-thiadiazol-2-yl)methyl)-1H-1,2,3-triazole-4-carboxamide] | 27 |
| O=C(NCc1nnc(-c2ccccc2)s1)c1c[nH]nc1C(F)(F)F [Example 44, N-[(5-phenyl-1,3,4-thiadiazol-2-yl)methyl]-3-(trifluoromethyl)-1H-pyrazole-4-carboxamide] | 770 |
